Assay results: the kinase profiling compilation of Christmann-Franck et al. (2016)

How the values were obtained:
Experiment in all cases: KINOMEscan competition binding
Details in all cases: compound 10.0 µM
MAP3K6 (human) = MAP3K6 (human) (UniProt O95382)
TAOK2 (human) = TAOK2 (human) (UniProt Q9UL54)
MKNK2 (human) = MKNK2 (human) (UniProt Q9HBH9)
[1] = biological target: JAK2 JH1 catalytic (human) (UniProt O60674)
RIOK1 (human) = RIOK1 (human) (UniProt Q9BRS2)
CAMK2G (human) = CAMK2G (human) (UniProt Q13555)
Sequence of CAMK2G (human) (Q13555 whole entry, looked up): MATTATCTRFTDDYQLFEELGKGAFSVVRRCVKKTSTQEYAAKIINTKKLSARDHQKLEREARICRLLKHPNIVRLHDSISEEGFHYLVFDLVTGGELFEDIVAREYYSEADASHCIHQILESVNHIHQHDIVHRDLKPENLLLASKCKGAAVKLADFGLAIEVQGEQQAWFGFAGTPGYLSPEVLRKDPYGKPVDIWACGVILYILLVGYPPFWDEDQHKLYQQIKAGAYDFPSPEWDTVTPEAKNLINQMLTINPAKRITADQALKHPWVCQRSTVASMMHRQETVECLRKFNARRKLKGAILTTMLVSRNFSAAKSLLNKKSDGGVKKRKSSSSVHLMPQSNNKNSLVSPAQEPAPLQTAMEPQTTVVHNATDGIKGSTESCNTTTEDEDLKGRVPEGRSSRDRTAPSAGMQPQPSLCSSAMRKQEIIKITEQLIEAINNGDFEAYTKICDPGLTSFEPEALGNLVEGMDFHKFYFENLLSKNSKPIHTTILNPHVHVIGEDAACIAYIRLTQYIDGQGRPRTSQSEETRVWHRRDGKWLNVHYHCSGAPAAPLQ

PIK3CD (human) = PIK3CD (human) (UniProt O00329)
TRPM6 (human) = TRPM6 (human) (UniProt Q9BX84)
PRKAA1 (human) = PRKAA1 (human) (UniProt Q13131)
SBK1 (human) = SBK1 (human) (UniProt Q52WX2)
EPHB4 (human) = EPHB4 (human) (UniProt P54760)
PLK4 (human) = PLK4 (human) (UniProt O00444)
MAPK10 (human) = MAPK10 (human) (UniProt P53779)
IRAK3 (human) = IRAK3 (human) (UniProt Q9Y616)
MAPKAPK2 (human) = MAPKAPK2 (human) (UniProt P49137)
WEE1 (human) = WEE1 (human) (UniProt P30291)
Sequence of WEE1 (human) (P30291 whole entry, looked up): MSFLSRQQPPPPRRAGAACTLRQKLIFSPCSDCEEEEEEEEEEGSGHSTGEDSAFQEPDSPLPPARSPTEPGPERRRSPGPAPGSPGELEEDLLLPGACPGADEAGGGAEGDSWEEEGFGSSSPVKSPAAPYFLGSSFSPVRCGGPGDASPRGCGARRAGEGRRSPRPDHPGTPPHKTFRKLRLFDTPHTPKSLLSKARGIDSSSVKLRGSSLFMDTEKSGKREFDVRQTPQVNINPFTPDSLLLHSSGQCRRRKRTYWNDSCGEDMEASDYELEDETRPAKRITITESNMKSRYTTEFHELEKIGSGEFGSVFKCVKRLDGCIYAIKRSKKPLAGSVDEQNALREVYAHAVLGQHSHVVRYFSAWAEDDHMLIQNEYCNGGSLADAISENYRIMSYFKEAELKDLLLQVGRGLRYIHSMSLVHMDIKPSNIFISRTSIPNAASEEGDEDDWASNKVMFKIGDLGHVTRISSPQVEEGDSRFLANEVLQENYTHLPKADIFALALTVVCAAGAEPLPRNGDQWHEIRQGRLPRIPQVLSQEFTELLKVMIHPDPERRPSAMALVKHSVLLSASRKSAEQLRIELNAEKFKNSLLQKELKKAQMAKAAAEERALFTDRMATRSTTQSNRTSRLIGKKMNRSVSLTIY

SGK3 (human) = SGK3 (human) (UniProt Q96BR1)
MYO3B (human) = MYO3B (human) (UniProt Q8WXR4)
[2] = tested on: PIK3CA (human), P42336 [C420R]
CLK1 (human) = CLK1 (human) (UniProt P49759)
Sequence of CLK1 (human) (P49759 whole entry, looked up): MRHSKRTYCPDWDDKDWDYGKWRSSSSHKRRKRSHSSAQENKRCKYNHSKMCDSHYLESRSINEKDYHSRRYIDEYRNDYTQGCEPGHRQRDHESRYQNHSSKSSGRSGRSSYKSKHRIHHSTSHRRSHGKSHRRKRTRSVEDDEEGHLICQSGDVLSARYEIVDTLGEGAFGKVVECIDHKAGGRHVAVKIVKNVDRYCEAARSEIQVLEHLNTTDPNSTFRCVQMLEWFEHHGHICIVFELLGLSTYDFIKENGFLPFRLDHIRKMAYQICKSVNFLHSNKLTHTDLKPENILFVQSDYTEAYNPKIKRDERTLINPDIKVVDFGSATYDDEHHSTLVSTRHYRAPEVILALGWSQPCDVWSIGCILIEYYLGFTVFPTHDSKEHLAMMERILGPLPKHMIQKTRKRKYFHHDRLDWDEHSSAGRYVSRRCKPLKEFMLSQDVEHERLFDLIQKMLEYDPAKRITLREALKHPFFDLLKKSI

MELK (human) = MELK (human) (UniProt Q14680)
MST1R (human) = MST1R (human) (UniProt Q04912)
RIOK3 (human) = RIOK3 (human) (UniProt O14730)
[3] = tested on: EIF2AK4 KD2 (human), Q9P2K8 [S808G]
MAPK11 (human) = MAPK11 (human) (UniProt Q15759)
TNIK (human) = TNIK (human) (UniProt Q9UKE5)
NTRK3 (human) = NTRK3 (human) (UniProt Q16288)
GSK3A (human) = GSK3A (human) (UniProt P49840)
DYRK1A (human) = DYRK1A (human) (UniProt Q13627)
CAMK4 (human) = CAMK4 (human) (UniProt Q16566)
RPS6KA5 KD2 (human) = RPS6KA5 KD2 (human) (UniProt O75582)
TSSK1B (human) = TSSK1B (human) (UniProt Q9BXA7)
RAF1 (human) = RAF1 (human) (UniProt P04049)
STK24 (human) = STK24 (human) (UniProt Q9Y6E0)
SRPK2 (human) = SRPK2 (human) (UniProt P78362)
Sequence of SRPK2 (human) (P78362 whole entry, looked up): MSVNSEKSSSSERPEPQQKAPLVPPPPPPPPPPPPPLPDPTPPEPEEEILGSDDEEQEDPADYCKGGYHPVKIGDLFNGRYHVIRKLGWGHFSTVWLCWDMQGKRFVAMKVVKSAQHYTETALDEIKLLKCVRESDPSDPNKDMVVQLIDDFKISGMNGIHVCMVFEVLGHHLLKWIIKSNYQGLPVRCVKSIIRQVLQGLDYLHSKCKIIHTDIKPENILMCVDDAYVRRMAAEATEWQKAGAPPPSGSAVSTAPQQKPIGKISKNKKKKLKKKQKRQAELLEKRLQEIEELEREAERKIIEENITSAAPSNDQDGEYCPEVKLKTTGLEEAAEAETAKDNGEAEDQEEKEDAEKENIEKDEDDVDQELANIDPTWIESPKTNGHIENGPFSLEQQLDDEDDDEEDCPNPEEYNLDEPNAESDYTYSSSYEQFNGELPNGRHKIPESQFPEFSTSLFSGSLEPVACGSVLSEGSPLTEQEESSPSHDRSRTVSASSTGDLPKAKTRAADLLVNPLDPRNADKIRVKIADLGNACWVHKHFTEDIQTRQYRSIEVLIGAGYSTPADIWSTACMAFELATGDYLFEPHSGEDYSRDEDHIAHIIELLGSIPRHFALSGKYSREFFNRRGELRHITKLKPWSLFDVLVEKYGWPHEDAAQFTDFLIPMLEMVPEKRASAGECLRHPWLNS

CDK9 (human) = CDK9 (human) (UniProt P50750)
Sequence of CDK9 (human) (P50750 whole entry, looked up): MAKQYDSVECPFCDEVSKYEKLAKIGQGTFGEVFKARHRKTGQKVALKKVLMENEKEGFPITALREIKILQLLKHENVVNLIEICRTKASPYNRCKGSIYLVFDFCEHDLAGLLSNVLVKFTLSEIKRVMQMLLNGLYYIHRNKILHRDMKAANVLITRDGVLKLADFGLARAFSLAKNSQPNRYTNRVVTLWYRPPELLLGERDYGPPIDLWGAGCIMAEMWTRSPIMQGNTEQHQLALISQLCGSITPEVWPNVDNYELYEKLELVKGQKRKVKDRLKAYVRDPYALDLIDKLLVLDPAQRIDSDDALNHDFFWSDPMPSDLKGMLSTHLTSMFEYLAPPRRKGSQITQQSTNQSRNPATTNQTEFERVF

ABL2 (human) = ABL2 (human) (UniProt P42684)
MAPK6 (human) = MAPK6 (human) (UniProt Q16659)
ACVR2B (human) = ACVR2B (human) (UniProt Q13705)
MUSK (human) = MUSK (human) (UniProt O15146)
GRK7 (human) = GRK7 (human) (UniProt Q8WTQ7)

Sequence of TAOK2 (human) (Q9UL54 whole entry, looked up): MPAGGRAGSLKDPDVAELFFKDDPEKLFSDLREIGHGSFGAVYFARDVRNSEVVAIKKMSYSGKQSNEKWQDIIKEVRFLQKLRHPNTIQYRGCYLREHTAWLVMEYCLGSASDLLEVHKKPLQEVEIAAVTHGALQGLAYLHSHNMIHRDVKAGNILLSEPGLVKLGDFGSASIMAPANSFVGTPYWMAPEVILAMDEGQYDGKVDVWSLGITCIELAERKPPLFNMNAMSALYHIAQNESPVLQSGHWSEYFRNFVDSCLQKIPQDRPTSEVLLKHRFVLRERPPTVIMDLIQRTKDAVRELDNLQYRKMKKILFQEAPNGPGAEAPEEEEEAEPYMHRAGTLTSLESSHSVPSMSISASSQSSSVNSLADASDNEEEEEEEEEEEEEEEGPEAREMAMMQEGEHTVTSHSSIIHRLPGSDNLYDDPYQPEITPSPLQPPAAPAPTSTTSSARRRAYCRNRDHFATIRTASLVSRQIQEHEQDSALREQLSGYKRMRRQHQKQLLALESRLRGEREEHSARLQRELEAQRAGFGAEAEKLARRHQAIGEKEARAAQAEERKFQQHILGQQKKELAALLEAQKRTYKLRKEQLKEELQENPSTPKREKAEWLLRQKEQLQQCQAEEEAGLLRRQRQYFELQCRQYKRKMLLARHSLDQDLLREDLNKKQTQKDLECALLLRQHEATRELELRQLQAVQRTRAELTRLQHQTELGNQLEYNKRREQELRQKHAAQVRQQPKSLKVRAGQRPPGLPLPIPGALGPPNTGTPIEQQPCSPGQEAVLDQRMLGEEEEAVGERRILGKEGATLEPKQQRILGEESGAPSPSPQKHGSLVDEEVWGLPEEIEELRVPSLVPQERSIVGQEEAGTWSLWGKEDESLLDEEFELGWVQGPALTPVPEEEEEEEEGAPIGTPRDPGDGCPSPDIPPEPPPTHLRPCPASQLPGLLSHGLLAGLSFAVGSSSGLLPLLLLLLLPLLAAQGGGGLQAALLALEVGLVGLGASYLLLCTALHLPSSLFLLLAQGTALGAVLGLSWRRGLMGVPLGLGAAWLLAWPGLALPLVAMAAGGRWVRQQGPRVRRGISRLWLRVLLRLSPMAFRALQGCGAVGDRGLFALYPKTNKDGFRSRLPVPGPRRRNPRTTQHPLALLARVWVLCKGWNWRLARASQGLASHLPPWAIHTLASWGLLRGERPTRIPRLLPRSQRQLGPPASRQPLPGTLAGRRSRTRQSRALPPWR
Sequence of RIOK1 (human) (Q9BRS2 whole entry, looked up): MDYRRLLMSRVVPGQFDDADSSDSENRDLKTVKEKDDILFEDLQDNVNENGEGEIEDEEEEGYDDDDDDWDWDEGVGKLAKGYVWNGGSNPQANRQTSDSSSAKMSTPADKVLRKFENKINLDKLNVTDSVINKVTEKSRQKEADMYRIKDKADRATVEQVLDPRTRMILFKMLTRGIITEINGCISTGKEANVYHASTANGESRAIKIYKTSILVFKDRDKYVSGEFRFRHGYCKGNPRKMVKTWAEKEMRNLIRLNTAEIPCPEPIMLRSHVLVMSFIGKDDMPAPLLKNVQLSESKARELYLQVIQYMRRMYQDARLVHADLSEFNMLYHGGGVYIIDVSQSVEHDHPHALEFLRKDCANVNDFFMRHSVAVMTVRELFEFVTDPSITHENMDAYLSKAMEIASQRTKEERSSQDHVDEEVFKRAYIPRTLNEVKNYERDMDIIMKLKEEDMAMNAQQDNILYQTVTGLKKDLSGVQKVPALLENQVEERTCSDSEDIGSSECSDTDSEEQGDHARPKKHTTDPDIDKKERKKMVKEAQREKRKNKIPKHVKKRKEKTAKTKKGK
Sequence of MKNK2 (human) (Q9HBH9 whole entry, looked up): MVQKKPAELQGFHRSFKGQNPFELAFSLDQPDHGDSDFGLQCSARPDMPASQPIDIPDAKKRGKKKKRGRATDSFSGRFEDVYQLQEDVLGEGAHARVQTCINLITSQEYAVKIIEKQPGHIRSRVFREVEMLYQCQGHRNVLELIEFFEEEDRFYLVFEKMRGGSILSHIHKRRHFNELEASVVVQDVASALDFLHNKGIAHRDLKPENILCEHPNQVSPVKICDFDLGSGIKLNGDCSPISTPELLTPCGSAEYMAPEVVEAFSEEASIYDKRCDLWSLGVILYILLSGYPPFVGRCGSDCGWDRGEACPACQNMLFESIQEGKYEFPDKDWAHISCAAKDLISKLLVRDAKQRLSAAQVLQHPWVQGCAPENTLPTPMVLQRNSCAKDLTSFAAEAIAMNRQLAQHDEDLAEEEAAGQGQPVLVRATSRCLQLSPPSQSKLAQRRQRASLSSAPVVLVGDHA

`CCC(=O)N1CCN(c2ccc(-n3c(=O)ccc4cnc5ccc(-c6cnc7ccccc7c6)cc5c43)cc2C(F)(F)F)CC1` was tested, and the kinase still bound, per cent of control (MAP3K6 (human)) was 100%, the kinase still bound, per cent of control (TAOK2 (human)) was 84% and the kinase still bound, per cent of control (MKNK2 (human)) was 54%. It also gave a kinase still bound, per cent of control [1] of 65%, a kinase still bound, per cent of control (RIOK1 (human)) of 81% and a kinase still bound, per cent of control (CAMK2G (human)) of 79%. The kinase still bound, per cent of control (PIK3CD (human)) was 51%, the kinase still bound, per cent of control (TRPM6 (human)) was 100% and the kinase still bound, per cent of control (PRKAA1 (human)) was 91%. The kinase still bound, per cent of control (SBK1 (human)) was 88%, the kinase still bound, per cent of control (EPHB4 (human)) was 85% and the kinase still bound, per cent of control (PLK4 (human)) was 100%. The kinase still bound, per cent of control (MAPK10 (human)) was 31%, the kinase still bound, per cent of control (IRAK3 (human)) was 27% and the kinase still bound, per cent of control (MAPKAPK2 (human)) was 100%. It also gave a kinase still bound, per cent of control (WEE1 (human)) of 42%, a kinase still bound, per cent of control (SGK3 (human)) of 100% and a kinase still bound, per cent of control (MYO3B (human)) of 100%. It also gave a kinase still bound, per cent of control [2] of 0.7%, a kinase still bound, per cent of control (CLK1 (human)) of 49% and a kinase still bound, per cent of control (MELK (human)) of 50%. The kinase still bound, per cent of control (MST1R (human)) was 55%, the kinase still bound, per cent of control (RIOK3 (human)) was 90% and the kinase still bound, per cent of control [3] was 99%. The kinase still bound, per cent of control (MAPK11 (human)) was 53%, the kinase still bound, per cent of control (TNIK (human)) was 39% and the kinase still bound, per cent of control (NTRK3 (human)) was 100%. The kinase still bound, per cent of control (GSK3A (human)) was 93%, the kinase still bound, per cent of control (DYRK1A (human)) was 71% and the kinase still bound, per cent of control (CAMK4 (human)) was 90%. For the same compound, the kinase still bound, per cent of control (RPS6KA5 KD2 (human)) was 100%, the kinase still bound, per cent of control (TSSK1B (human)) was 100% and the kinase still bound, per cent of control (RAF1 (human)) was 48%. For the same compound, the kinase still bound, per cent of control (STK24 (human)) was 100%, the kinase still bound, per cent of control (SRPK2 (human)) was 100% and the per cent of control (CDK9 (human)) was 94%. It also gave a kinase still bound, per cent of control (ABL2 (human)) of 99%, a kinase still bound, per cent of control (MAPK6 (human)) of 1.8% and a kinase still bound, per cent of control (ACVR2B (human)) of 42%. For the same compound, the kinase still bound, per cent of control (MUSK (human)) was 100% and the kinase still bound, per cent of control (GRK7 (human)) was 100%.
Compound `COC(=O)Nc1ccc(-c2nc(N3CCOCC3)c3cnn(C4CCN(C(=O)OC)CC4)c3n2)cc1` has a kinase still bound, per cent of control (MAP3K6 (human)) of 95%, a kinase still bound, per cent of control (TAOK2 (human)) of 73% and a kinase still bound, per cent of control (MKNK2 (human)) of 40%. The kinase still bound, per cent of control [1] was 73%, the kinase still bound, per cent of control (RIOK1 (human)) was 92% and the kinase still bound, per cent of control (CAMK2G (human)) was 93%. For the same compound, the kinase still bound, per cent of control (PIK3CD (human)) was 40%, the kinase still bound, per cent of control (TRPM6 (human)) was 100% and the kinase still bound, per cent of control (PRKAA1 (human)) was 100%. It also gave a kinase still bound, per cent of control (SBK1 (human)) of 100%, a kinase still bound, per cent of control (EPHB4 (human)) of 94% and a kinase still bound, per cent of control (PLK4 (human)) of 100%. The kinase still bound, per cent of control (MAPK10 (human)) was 100%, the kinase still bound, per cent of control (IRAK3 (human)) was 79% and the kinase still bound, per cent of control (MAPKAPK2 (human)) was 100%. For the same compound, the kinase still bound, per cent of control (WEE1 (human)) was 100%, the kinase still bound, per cent of control (SGK3 (human)) was 99% and the kinase still bound, per cent of control (MYO3B (human)) was 97%. It also gave a kinase still bound, per cent of control [2] of 3%, a kinase still bound, per cent of control (CLK1 (human)) of 100% and a kinase still bound, per cent of control (MELK (human)) of 86%. The kinase still bound, per cent of control (MST1R (human)) was 82%, the kinase still bound, per cent of control (RIOK3 (human)) was 100% and the kinase still bound, per cent of control [3] was 88%. The kinase still bound, per cent of control (MAPK11 (human)) was 80%, the kinase still bound, per cent of control (TNIK (human)) was 95% and the kinase still bound, per cent of control (NTRK3 (human)) was 100%. The kinase still bound, per cent of control (GSK3A (human)) was 100%, the kinase still bound, per cent of control (DYRK1A (human)) was 88% and the kinase still bound, per cent of control (CAMK4 (human)) was 100%. It also gave a kinase still bound, per cent of control (RPS6KA5 KD2 (human)) of 88%, a kinase still bound, per cent of control (TSSK1B (human)) of 100% and a kinase still bound, per cent of control (RAF1 (human)) of 91%. For the same compound, the kinase still bound, per cent of control (STK24 (human)) was 100%, the kinase still bound, per cent of control (SRPK2 (human)) was 100% and the per cent of control (CDK9 (human)) was 100%. For the same compound, the kinase still bound, per cent of control (ABL2 (human)) was 100%, the kinase still bound, per cent of control (MAPK6 (human)) was 100% and the kinase still bound, per cent of control (ACVR2B (human)) was 100%. The kinase still bound, per cent of control (MUSK (human)) was 100% and the kinase still bound, per cent of control (GRK7 (human)) was 100%.
With `CC(C)n1nc(-c2cc3cc(O)ccc3[nH]2)c2c(N)ncnc21` the kinase still bound, per cent of control (MAP3K6 (human)) was 85%, the kinase still bound, per cent of control (TAOK2 (human)) was 1.2% and the kinase still bound, per cent of control (MKNK2 (human)) was 4.5%. It also gave a kinase still bound, per cent of control [1] of 0.95%, a kinase still bound, per cent of control (RIOK1 (human)) of 100% and a kinase still bound, per cent of control (CAMK2G (human)) of 56%. It also gave a kinase still bound, per cent of control (TRPM6 (human)) of 70%, a kinase still bound, per cent of control (PRKAA1 (human)) of 43% and a kinase still bound, per cent of control (SBK1 (human)) of 92%. It also gave a kinase still bound, per cent of control (PLK4 (human)) of 2.6%, a kinase still bound, per cent of control (MAPK10 (human)) of 72% and a kinase still bound, per cent of control (IRAK3 (human)) of 12%. For the same compound, the kinase still bound, per cent of control (MAPKAPK2 (human)) was 100%, the kinase still bound, per cent of control (WEE1 (human)) was 72% and the kinase still bound, per cent of control (SGK3 (human)) was 81%. The kinase still bound, per cent of control (MYO3B (human)) was 19%, the kinase still bound, per cent of control (CLK1 (human)) was 14% and the kinase still bound, per cent of control (MELK (human)) was 10%. The kinase still bound, per cent of control (MST1R (human)) was 89%, the kinase still bound, per cent of control (RIOK3 (human)) was 83% and the kinase still bound, per cent of control [3] was 81%. It also gave a kinase still bound, per cent of control (MAPK11 (human)) of 100%, a kinase still bound, per cent of control (TNIK (human)) of 2.4% and a kinase still bound, per cent of control (NTRK3 (human)) of 49%. It also gave a kinase still bound, per cent of control (GSK3A (human)) of 74%, a kinase still bound, per cent of control (DYRK1A (human)) of 27% and a kinase still bound, per cent of control (CAMK4 (human)) of 100%. For the same compound, the kinase still bound, per cent of control (RPS6KA5 KD2 (human)) was 22%, the kinase still bound, per cent of control (TSSK1B (human)) was 83% and the kinase still bound, per cent of control (RAF1 (human)) was 41%. For the same compound, the kinase still bound, per cent of control (STK24 (human)) was 67%, the kinase still bound, per cent of control (SRPK2 (human)) was 100% and the per cent of control (CDK9 (human)) was 96%. The kinase still bound, per cent of control (ABL2 (human)) was 28%, the kinase still bound, per cent of control (MAPK6 (human)) was 52% and the kinase still bound, per cent of control (ACVR2B (human)) was 2%. For the same compound, the kinase still bound, per cent of control (MUSK (human)) was 100% and the kinase still bound, per cent of control (GRK7 (human)) was 2.9%.
